# Test results reported in patent publication US20180207190A1, “COMPOSITION CONTAINING NAD FOR PREVENTING AND TREATING OBESITY OR IMPAIRED GLUCOSE TOLERANCE” (UNIVERSITY OF ULSAN FOUNDATION FOR INDUSTRY COOPERATION, priority 2015, published 2018).
# Entries after “also recorded” stand apart in the source; their conditions may differ.
# Tests used:
# [1] = NR supplementation; cited from earlier work
# NQO1 = NQO1 (Homo sapiens, UniProt P15559); conditions: cited from earlier work
# C57BL/6 mice [2] = test: Feeding study, single intraperitoneal administration: food intake; type: in vivo, mouse
# Description: (§1) Mature male C57BL/6 mice were purchased from ORIENT BIO Inc. (Gyeonggi-do, Republic of Korea). Unless stated otherwise, the mice were freely fed a standard diet (Cargill Agri Purina, Inc., Seoul, Republic of Korea). To establish a diet-induced obesity (DIO) model, the mice were fed a HFD (60% fats, Research Diet Co., New Brunswick, N.J.) for 20 weeks. The animals were raised at a controlled temperature (22±1° C.) under a 12-hour light/dark cycle (a light condition from 08:00 a.m. to 8:00 p.m.) For experiments of single administration of NAD+ and NMN, 8-week-old mice were fasted overnight, and NAD+(purchased from Sigma, administered at 0.3, 1 and 3 mg/kg) or NMN (purchased from Sigma, administered at 30, 100, and 300 mg/kg) was intraperitoneally administered to the mice between 09:00 a.m. and 10:00 a.m. For ? chronic NAD+ treatment, NAD+(0.3 mg/kg body weight/day) was intraperitoneally injected once to the mice immediately before the lights went off for 4 weeks.
# (§2) A predetermined dose of NAD+ or NMN was administered to C57BL/6 mice, which were fasted overnight, during an early light phase (09:00 to 11:00) by using a given method. The same amount of a vehicle (i.e., physiological saline) was administered to the control mice.
# [3] = tested on: cultured neuronal cells, astrocytes, and cardiac myocytes; conditions: cells treated with NAD+; cited from earlier work
# C57BL/6 mice [4] = test: Oral glucose tolerance test; type: in vivo, mouse; conditions: NAD+ 0.3, 1, 3 mg/kg single IP 30 minutes before oral glucose 2 g/kg, overnight-fasted normal mice
# Description: For an oral glucose tolerance test, the mice were fasted overnight, 2 g/kg (body weight) of glucose was orally administered (by oral gavage), and blood glucose levels were measured immediately before oral administration (0 minute) and 15, 30, 60, and 120 minutes after the oral administration. 30 minutes prior to glucose administration, NAD+(0.3, 1 and 3 mg/kg) was intraperitoneally administered.
# To examine an effect of single IP injection of NAD+ on the glucose tolerance, an oral glucose tolerance test was performed on ND-fed C57BL/6 mice that were fasted overnight. A single IP dose of NAD+(0.3, 1 and 3 mg/kg) was administered to the mice, and glucose (2 g/kg) was orally administered thereto after 30 minutes. Thereafter, blood glucose levels were measured at 15, 30, 60, and 120 minutes.
# HFD-fed obese mice [5] = test: Chronic IP injection for 4 weeks: body weight and side effects in ND-fed and HFD-fed (diet-induced obesity) mice; type: in vivo, mouse; conditions: for body weight vs saline-injected group: NAD+ 0.3 mg/kg/day IP once a day for 4 weeks, 0.3 mg/kg/day
# Description: as §1
# Additionally, an effect of chronic IP injection of NAD+ on the body weight was also examined (FIG. 4). The mice were divided into four groups (a group of ND-fed mice to which saline was IP injected, a group of ND-fed mice to which NAD+ was IP injected, a group of HFD-fed mice to which saline was IP injected, and a group of HFD-fed mice to which NAD+ was IP injected), and NAD+ was intraperitoneally administered to the mice at a dose of 0.3 mg/kg/day once a day for 4 weeks.
# HFD-fed obese mice [6] = test: Circadian rhythm of feed intake and physical activity (CLAMS) after chronic IP injection; type: in vivo, mouse; conditions: NAD+ 0.3 mg/kg/day IP 4 weeks, CLAMS 24 hours
# Description: as §1
# The feed intake and physical activity of mice were measured using a comprehensive laboratory animal monitoring system (CLAMS, Columbus Instruments) (n=4 to 5). The light and feeding conditions were maintained under the same conditions as in a home cage. Water was freely provided during an observation period.
# Further, an effect of chronic IP injection of NAD+ on the feed intake was verified as follows. To examine a chronic effect of the NAD+ intraperitoneal injection on the feed intake, NAD+(0.3 mg/kg) or saline was administered to the following three groups of mice once a day for 4 weeks: an IP saline-injected group of mice fed the ND, an IP saline-injected group of mice fed the HFD, and an IP NAD+-injected group of mice fed the HFD.
# To test an effect of habitual IP injection of NAD+(0.3 mg/kg/day) on mobility in an obese animal model, the mice were divided into three groups, that is, an IP saline-injected group of mice fed the ND, an IP saline-injected group of mice fed the HFD, and an IP NAD+-injected group of mice fed the HFD and the mobility thereof was evaluated.
# rodents = conditions: exogenous NAD+ administration; cited from earlier work
# C57BL/6 mice [7] = test: Feeding study, single intravascular (ICV, third ventricle cannula) administration: food intake and body weight; type: in vivo, mouse
# Description: as §1
# Permanent 26-gauge stainless steel cannulae were surgically inserted into the third ventricles of mice (a cannula insertion position: 1.8 mm posterior to bregma and 5.0 mm below the sagittal sinus). For surgery, the mice were anesthetized with a mixture of Zoletil and Rumpun (2:1 v/v, 10 μL/g body weight). The exact cannulation positions of the cannulae were confirmed through a positive dipsogenic response after angiotensin II (50 ng) was administered. Only the mice in which the cannulae were precisely positioned were used for data analyses. After a recovery period of 7 days after the surgery, the mice were daily touched for a predetermined time over a week to minimize a stress response to the experiments. Immediately before administration, NAD+ and NMN were dissolved in 0.9% saline and used. The NAD+ and NMN were dissolved in 2 μL of saline for intravascular administration.
# as §2
# [8] = tested on: diabetic mice fed a high-fat diet; conditions: cited from earlier work
# NQO1, sequence (P15559 whole entry, species assumed): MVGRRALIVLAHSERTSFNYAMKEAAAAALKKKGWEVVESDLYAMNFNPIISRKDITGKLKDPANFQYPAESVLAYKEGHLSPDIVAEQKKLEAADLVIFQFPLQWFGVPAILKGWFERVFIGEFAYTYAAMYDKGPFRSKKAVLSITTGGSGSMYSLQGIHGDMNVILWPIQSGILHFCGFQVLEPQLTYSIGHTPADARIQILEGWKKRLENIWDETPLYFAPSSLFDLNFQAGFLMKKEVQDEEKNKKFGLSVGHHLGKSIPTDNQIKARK
compound,measurement,setting,value
"NC(=O)c1ccc[n+]([C@@H]2O[C@H](CO)[C@@H](O)[C@H]2O)c1 [NR, nicotinamide riboside]",NAD+ level in peripheral tissues such as liver and skeletal muscles,[1],increases
same,NAD+ level in the brain,[1],does not increase
CC1(C)CCC2=C(O1)c1ccccc1C(=O)C2=O [βL],"NAD+, NAD+/NADH, and NADP+/NADPH ratios",NQO1,increase
"NC(=O)c1ccc[n+]([C@@H]2O[C@H](COP(=O)([O-])OP(=O)(O)OC[C@H]3O[C@@H](n4cnc5c(N)ncnc54)[C@H](O)[C@@H]3O)[C@@H](O)[C@H]2O)c1 [NAD+, nicotinamide adenine dinucleotide]",food intake at 4 hours vs saline,C57BL/6 mice [2]; NAD+ 1 mg/kg single IP,significantly reduced
same,food intake at 4 hours vs saline,"C57BL/6 mice [2]; NAD+ 0.3, 1, 3 mg/kg single IP, overnight-fasted mice",significantly reduced
same,apoptosis induced by oxidative stress,[3],reduced
same,blood glucose level at 15 and 30 minutes after glucose administration vs saline,C57BL/6 mice [4],significantly reduced; also recorded: much lower blood glucose level
same,body weight vs saline-injected group,HFD-fed obese mice [5]; HFD-fed obese mice,significantly reduced; also recorded: significant effect; also recorded: significant decrease
same,side effects of chronic injection,"HFD-fed obese mice [5]; NAD+ 0.3 mg/kg/day IP, 4 weeks",did not cause any notable side effects
same,body weight vs saline-injected group,HFD-fed obese mice [5]; ND-fed normal mice,did not induce a weight loss; also recorded: not significantly different
same,daytime feed intake,HFD-fed obese mice [6],significantly reduced
same,nighttime feed intake,HFD-fed obese mice [6],did not significantly reduce
same,food intake frequency,HFD-fed obese mice [6]; 0.3 mg/kg/day,suppressed a high food intake frequency of the obese mice to a normal mouse level; also recorded: significantly reduced
same,nighttime physical activity (mobility),HFD-fed obese mice [6]; 0.3 mg/kg/day,remarkably restored
same,ischemic brain damage and cardiomegaly,rodents,improves
same,weight gain / body weight for 24 hours vs saline,C57BL/6 mice [7]; NAD+ 0.2 pmol single intracerebroventricular (ICV),significantly suppressed; also recorded: reduced the body weight; also recorded: significantly reduced level of weight gain
same,food intake vs saline,"C57BL/6 mice [7]; NAD+ 0.2, 1, 2 pmol single intracerebroventricular (ICV), overnight-fasted mice, observed for 24 hours, effect maintained at 24 hours",significantly reduced; also recorded: reduced food intake
same,time at which decrease in food intake started after administration,C57BL/6 mice [7]; NAD+ single intracerebroventricular (ICV),2 h
"NC(=O)c1ccc[n+]([C@@H]2O[C@H](COP(=O)([O-])O)[C@@H](O)[C@H]2O)c1 [NMN, nicotinamide mononucleotide, reference compound]",food intake at 4 hours vs saline,C57BL/6 mice [2]; NMN 300 mg/kg single IP,significantly reduced level of food intake
same,food intake at 24 hours vs control,"C57BL/6 mice [2]; NMN 30, 100, 300 mg/kg single IP",did not have a reduced food intake; also recorded: not maintained; also recorded: no decrease in food intake
same,"NAD+ level in the liver, adipose tissues, and skeletal muscles","[8]; IP NMN, HFD-fed diabetic mice",successfully increases
same,glucose tolerance,"[8]; NMN, diabetic mice",restores damaged glucose tolerance
same,food intake vs saline,"C57BL/6 mice [7]; NMN 10 pmol single ICV, 24 hours after injection",reduced; also recorded: much lower level of food intake
same,change in body weight for 24 hours vs control,"C57BL/6 mice [7]; NMN 10, 100, 1,000 pmol single ICV",no significant difference; also recorded: did not cause a change in body weight
